This is an account of results in patent EP3502102A1, “STING INHIBITORS” (ECOLE POLYTECHNIQUE FEDERALE DE LAUSANNE (EPFL), priority 2017, dated 2019).

Experiment [1] has as its target T1, STING (Mus musculus, UniProt Q3TBT3).
T1 sequence (Q3TBT3 1-378): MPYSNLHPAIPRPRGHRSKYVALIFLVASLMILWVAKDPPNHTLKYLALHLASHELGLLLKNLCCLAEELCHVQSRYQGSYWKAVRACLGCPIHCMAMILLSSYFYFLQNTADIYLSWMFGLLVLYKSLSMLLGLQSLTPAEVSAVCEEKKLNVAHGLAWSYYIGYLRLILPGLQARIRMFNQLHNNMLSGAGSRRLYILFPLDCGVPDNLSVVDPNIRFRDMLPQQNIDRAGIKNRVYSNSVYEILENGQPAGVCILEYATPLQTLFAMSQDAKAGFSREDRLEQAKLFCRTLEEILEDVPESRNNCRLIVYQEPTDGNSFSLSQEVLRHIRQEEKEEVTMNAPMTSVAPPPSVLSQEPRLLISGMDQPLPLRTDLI
The experiment is described as follows: Blue native gel assay of STING clusters. It counts as cell-based. Also on record: expressed in transfected cells; host or cells: HEK293T. Conditions: C-178, C-176 1 µM, 2-BP 50 µM; CMA 1.5 h. The protocol:
(§1) Reporter activity was measured 16 h after compound treatment. A nonlinear regression analysis was performed. […] Circles indicate substitutes compared to C-176. d, e, Chemical compounds from (c) were tested at 0.5 µM for inhibitory activity in HEK293T cells transfected with STING (e) or RIG-I (f) in conjunction with IFN-• luciferase reporter, respectively. b, e, f, Values of inhibitor-treated cells were normalized to DMSO-treated cells. […] Cytokine levels were normalized to DMSO-treated control cells. A nonlinear regression analysis was performed for cGAMP stimulation. b, c, BMDMs were pre-treated with C-178 (0.25 µM) and stimulated with cGAMP, cyclic di-GMP, CMA, 90mer dsDNA or LPS for 3 h. The induction of Ifnb1 mRNA levels was assessed by RT-qPCR. d, Heatmaps of RNA sequencing analysis of BMDMs treated with DMSO or CMA and with or without addition of C-178. […] Reporter activity was measured 16 h after transfection and values were normalized to DMSO-treated control cells. c, BMDMs were treated with C-178 (0.25 µM) for 1 h, washed or left untreated and after an additional hour stimulated with cGAMP. […] Flag-STING was immunoprecipitated from whole cell lysate and analysed by autoradiography. In parallel, cell lysates were analysed by immunoblotting for p-TBK1 and STING. d, HEK293T cells expressing STING were treated as indicated (C-178 (1 µM)) and stimulated with CMA for 1.5 h. […]

The target in experiment [2] is T1, STING. The experiment is described as follows: IFN-beta luciferase reporter in HEK293T cells transfected with STING, alone or with a cyclic dinucleotide synthase. It counts as cell-based. Also on record: expressed in transfected cells; host or cells: HEK293T. The procedure: Reporter activity was measured 16 h after compound treatment. A nonlinear regression analysis was performed. […] Cytokine levels were normalized to DMSO-treated control cells. […] Nuclei were stained with DAPI. […] Depicted genes were measured by RT-qPCR. […] 16 h later Luciferase activity was measured. […] Flag-STING was immunoprecipitated and analysed by autoradiography.
HEK293T cells expressing murine STING with an N-terminal mCherry-tag ^28 were transfected using GeneJuice (Millipore) with a construct encoding for cyclic di-GMP synthase in conjunction with an IFN-• firefly luciferase reporter plasmid. 3 h after transfection cells were seeded in […] (Corning) coated with library compounds. For each compounds, a 40 nl volume was selected to obtain a concentration of 10 µM in the assay plates. The amount of DMSO in each well was normalised to 0.1%. After overnight treatment, cells were lysed in lysis buffer (25 mM Tris-phosphate (pH 7.8), 2 mM DTT, 2 mM 1,2-diaminocyclohexane-N,N,N',N'-tetraacetic acid, 10% glycerol, 1% Triton® X-100) for 20 min followed by the addition of firefly luciferase. Reporter activity was measured using a Tecan Infinite plate reader. The screen was performed using on ∼ 20.000 compounds from a chemically diverse compound collection available at the BSF core facility at EPFL.
In these cells, transient transfection of vectors encoding for cyclic di-GMP synthase (cdG-Syn) and an IFN-• reporter leads to robust induction of firefly luciferase activity. We used this system to perform a high-throughput chemical screen with a library of ∼ 20.000 small molecule compounds (Fig. 6b). To increase the selectivity of candidate compounds against the STING pathway, hits from the primary screen were counter-screened for their effect on RIG-I-driven activation of the IFN-• reporter. […] To further validate the two small molecules, we treated wild-type HEK293T cells with C-178 and C-176, in which STING was either expressed alone or in conjunction with cdG-Syn. […] We next conducted a limited structure-activity relationship (SAR) analysis. Since both C-178 and C-176 share a characteristic nitrofuran moiety, we prepared analogues of C-176/8 in which this structural motif was substituted (Fig. 1c).

Experiment [3] deals with T1, STING. The experiment is described as follows: Type I IFN bioassay of BMDMs stimulated with cGAMP. It counts as cell-based. The conditions noted are these: BMDMs pre-treated, 0.02 µM- 2.5 µM, read-out: calculated IC50, production of type I IFNs. Also on record: endogenous in cells; host or cells: BMDMs from wild type mice. The protocol:
as §1

In a further experiment the target is T2, TLR-4 (Mus musculus, UniProt Q9QUK6).
T2 construct: endogenous in cells; host or cells: BMDMs from wild type mice
T2 sequence (Q9QUK6 26-835): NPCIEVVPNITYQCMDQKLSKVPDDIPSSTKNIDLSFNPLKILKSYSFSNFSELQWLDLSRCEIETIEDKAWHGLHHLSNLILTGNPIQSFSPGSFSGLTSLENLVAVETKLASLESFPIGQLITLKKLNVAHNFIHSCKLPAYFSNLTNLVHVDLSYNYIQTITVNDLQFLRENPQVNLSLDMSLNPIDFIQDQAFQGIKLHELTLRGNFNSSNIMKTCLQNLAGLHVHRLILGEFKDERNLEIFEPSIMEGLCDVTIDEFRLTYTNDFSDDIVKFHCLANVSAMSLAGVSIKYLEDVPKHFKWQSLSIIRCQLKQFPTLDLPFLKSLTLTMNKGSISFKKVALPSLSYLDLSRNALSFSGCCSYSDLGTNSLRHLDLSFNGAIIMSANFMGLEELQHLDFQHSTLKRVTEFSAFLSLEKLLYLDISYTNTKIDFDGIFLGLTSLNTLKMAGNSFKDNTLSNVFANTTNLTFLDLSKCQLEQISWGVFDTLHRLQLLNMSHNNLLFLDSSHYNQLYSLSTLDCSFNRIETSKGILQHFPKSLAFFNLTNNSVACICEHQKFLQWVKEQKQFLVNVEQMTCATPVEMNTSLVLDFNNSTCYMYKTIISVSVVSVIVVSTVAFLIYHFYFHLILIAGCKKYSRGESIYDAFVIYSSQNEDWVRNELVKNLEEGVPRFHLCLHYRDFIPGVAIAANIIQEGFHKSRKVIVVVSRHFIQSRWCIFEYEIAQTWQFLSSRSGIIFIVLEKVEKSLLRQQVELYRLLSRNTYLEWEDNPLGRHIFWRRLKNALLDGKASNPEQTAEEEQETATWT
T2 sequence (Q9JHF9 19-160 partner): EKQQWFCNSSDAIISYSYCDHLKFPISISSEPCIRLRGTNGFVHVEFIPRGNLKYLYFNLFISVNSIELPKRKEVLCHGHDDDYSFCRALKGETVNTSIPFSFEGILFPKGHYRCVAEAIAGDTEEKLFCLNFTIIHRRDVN
The experiment is described as follows: Ifnb1 mRNA (RT-qPCR) in BMDMs stimulated with LPS (control). It counts as cell-based. The conditions noted are these: 0.25 µM. The protocol:
as §1
Background: In qPCR the cycle at which signal appears reflects the starting amount.

A further experiment has as its system BMDMs. The experiment is described as follows: RNA sequencing of BMDMs with or without CMA. It counts as cell-based, mouse. Conditions: pre-treatment with C-178, CMA. The procedure: as §1
For experiment [4], the target named is T3, hsSTING(AA1-138)-mmSTING(AA138-378) (UniProt Q3TBT3+Q86WV6).
T3 construct: hsSTING(AA1-138)-mmSTING(AA138-378); expressed in transfected cells; host or cells: HEK293T
T3 sequence (Q86WV6 1-138, one chain of several): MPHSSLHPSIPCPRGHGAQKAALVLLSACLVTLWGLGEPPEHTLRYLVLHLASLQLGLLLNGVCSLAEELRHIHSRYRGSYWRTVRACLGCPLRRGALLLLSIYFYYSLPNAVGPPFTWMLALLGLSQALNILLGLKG
The experiment is described as follows: IFN reporter in HEK293T cells, chimeric construct 1. The conditions noted are these: reversed construct (human N-terminal, mouse C-terminal part); 0.5 µm. It counts as cell-based. The protocol:
as §1

Usually IC50 stands for the concentration needed to halve the response being measured.

For the compound `CCCCCCCCCCCCCCC(Br)C(=O)O` (centres unmarked) [2-bromopalmitate, reference compound], on STING [1], the “assembly of STING clusters” value is “blocked”.
As for `O=C(Nc1ccc(I)cc1)c1ccco1` [C-176-009], the “inhibitory capacity against STING” value at STING [2] (derivatives tested at 0.5 µM, HEK293T transfected with STING) is “inactive”.
In the case of `O=C(Nc1ccc2c(c1)oc1ccccc12)c1ccc([N+](=O)[O-])o1` [C-178, N-dibenzo[b,d]furan-3-yl-5-nitro-2-furamide], the IC50 on STING [3] was roughly 0.023 µM. Further, on STING [2] (wild-type HEK293T, STING expressed alone or in conjunction with cdG-Syn, 0.01-5µM, 16 h), the “half-maximal inhibitory concentration (IC50) values, IFN-• reporter activity” value is on record as “nanomolar”. For the same compound, on TLR-4, the “activity against the TLR-4 agonist LPS” value is listed as “not active”. Further, in the experiment with BMDMs, the “significantly affected induced expression, number of the 500 most up-regulated genes after CMA” value came to 498 and the “significantly affected induced expression, share of the 500 most up-regulated genes after CMA” value is on record as 99.6%. Besides, the “IFN reporter activity of chimeric construct” value in experiment [4] is “inactive”.
